According to patent publication US10538555B2, “Macrocyclic inhibitors of the PD-1/PD-L1 and CD80(B7-1)/PD-L1 protein/protein interactions” (BRISTOL-MYERS SQUIBB COMPANY, priority 2014, dated 2020):
Where a SMILES comes first, the peptide text is derived from it. Bridges are numbered along the chain shown (N, C = ends). [ ]: non-standard residue; d: D form. ξ: configuration not given here. Trp(1-CH2COOH) = N[C@@H](Cc1cn(CC(=O)O)c2ccccc12)C(=O)O; Hyp = O=C(O)[C@@H]1C[C@@H](O)CN1; NMeNle = CCCC[C@H](NC)C(=O)O; NMeA = CN[C@@H](C)C(=O)O; Dab = NCC[C@H](N)C(=O)O; Dap = NC[C@H](N)C(=O)O; ξP = O=C(O)C1CCCN1; Sar = CNCC(=O)O

Target: T1, Human PD-L1/PD-1 (Homo sapiens, UniProt Q9NZQ7)
T1 construct: TVMV protease cleavage site (C); made in house; host or cells: HEK293T cells
T1 sequence (Q9NZQ7 with tags, fused parts or gaps): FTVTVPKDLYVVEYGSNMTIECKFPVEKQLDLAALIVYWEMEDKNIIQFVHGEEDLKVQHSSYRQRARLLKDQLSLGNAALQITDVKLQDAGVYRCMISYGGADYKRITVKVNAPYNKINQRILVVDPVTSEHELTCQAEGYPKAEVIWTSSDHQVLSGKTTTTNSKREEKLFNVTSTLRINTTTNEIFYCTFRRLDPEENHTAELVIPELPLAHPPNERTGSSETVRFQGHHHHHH
Test: HTRF Human PD-L1/PD-1 binding assay (PD-1-Ig/PD-L1-His)
Settings: PD-L1-His 10 nM, PD-1-Ig 20 nM; class symbol; read-out: HTRF Human PD-L1/PD-1 Binding Assay IC50 Range
Summary of the method: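 HTRF competition using HEK293T-expressed human PD-1(25-167)-Ig at 20 nM and PD-L1(18-239)-His at 10 nM, compound incubated first with PD-L1 for 15 min, then with PD-1 for 15 min. Signal read as 665/620 nm ratio 30 min after adding Eu anti-Ig and APC anti-His antibodies.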

| SMILES | IC50 [nM] |
| --- | --- |
| CCCC[C@H]1C(=O)N(C)[C@@H](CCCC)C(=O)N[C@@H](CCC(=O)O)C(=O)N[C@H](C(=O)NCC(N)=O)CSCC(=O)N[C@@H](Cc2ccc(O)cc2)C(=O)N(C)[C@@H](C)C(=O)N[C@@H](CC(=O)O)C(=O)N2CCC[C@H]2C(=O)N[C@@H](CO)C(=O)N[C@@H](CC(C)C)C(=O)N2C[C@H](O)C[C@H]2C(=O)N[C@@H](Cc2c[nH]c3ccccc23)C(=O)N[C@@H](CCN)C(=O)N[C@@H](Cc2cn(CC(=O)O)c3ccccc23)C(=O)N1C [Example 6135] ({CH2CO}-Y[NMeA]DPSL[Hyp]W[Dab][Trp(1-CH2COOH)][NMeNle][NMeNle]ECG-NH2; thioether N-14) | 1 to 9.9 |
| CCCC[C@H]1C(=O)N(C)[C@@H](CCCC)C(=O)N[C@@H](CCC(=O)O)C(=O)N[C@H](C(=O)NCC(N)=O)CSCC(=O)N[C@@H](Cc2ccc(O)cc2)C(=O)N(C)[C@@H](C)C(=O)N[C@@H](CC(N)=O)C(=O)N2CCC[C@H]2C(=O)N[C@@H](CO)C(=O)N[C@@H](CC(C)C)C(=O)N2C[C@H](O)C[C@H]2C(=O)N[C@@H](Cc2c[nH]c3ccccc23)C(=O)N[C@@H](CCN)C(=O)N[C@@H](Cc2cn(CC(=O)O)c3ccccc23)C(=O)N1C [Example 6136] ({CH2CO}-Y[NMeA]NPSL[Hyp]W[Dab][Trp(1-CH2COOH)][NMeNle][NMeNle]ECG-NH2; thioether N-14) | 10 to 99.9 |
| CCCC[C@H]1C(=O)N(C)[C@@H](CCCC)C(=O)N[C@@H](CN)C(=O)N[C@H](C(N)=O)CSCC(=O)N[C@@H](Cc2ccc(O)cc2)C(=O)N(C)[C@@H](C)C(=O)N[C@@H](CC(N)=O)C(=O)N2CCC[C@H]2C(=O)N[C@@H](CN)C(=O)N[C@@H](CC(C)C)C(=O)N2C[C@H](O)C[C@H]2C(=O)N[C@@H](Cc2c[nH]c3ccccc23)C(=O)N[C@@H](CO)C(=O)N[C@@H](Cc2cn(CC(=O)O)c3ccccc23)C(=O)N1C [Example 6140] | 1 to 9.9 |
| CCCC[C@H]1C(=O)N(C)[C@@H](CCCC)C(=O)N[C@@H](CC(C)C)C(=O)N[C@H](C(=O)NCC(N)=O)CSCC(=O)N[C@@H](Cc2ccc(O)cc2)C(=O)N(C)[C@@H](C)C(=O)N[C@@H](CC(=O)O)C(=O)N2CCC[C@H]2C(=O)N[C@@H](Cc2cnc[nH]2)C(=O)N[C@@H](CCC(=O)O)C(=O)N2C[C@H](O)C[C@H]2C(=O)N[C@@H](Cc2c[nH]c3ccccc23)C(=O)N[C@@H](CCN)C(=O)N[C@@H](Cc2cn(CC(=O)O)c3ccccc23)C(=O)N1C [Example 6141] ({CH2CO}-Y[NMeA]DPHE[Hyp]W[Dab][Trp(1-CH2COOH)][NMeNle][NMeNle]LCG-NH2; thioether N-14) | 1 to 9.9 |
| CCCC[C@H]1C(=O)N(C)[C@@H](CCCC)C(=O)N[C@@H](C)C(=O)N[C@H](C(=O)NCC(N)=O)CSCC(=O)N[C@@H](Cc2ccc(O)cc2)C(=O)N(C)[C@@H](C)C(=O)N[C@@H](CC(=O)O)C(=O)N2CCC[C@H]2C(=O)N[C@@H](Cc2cnc[nH]2)C(=O)N[C@@H](CCC(N)=O)C(=O)N2C[C@H](O)C[C@H]2C(=O)N[C@@H](Cc2c[nH]c3ccccc23)C(=O)N[C@@H](CCN)C(=O)N[C@@H](Cc2cn(CC(=O)O)c3ccccc23)C(=O)N1C [Example 6158] ({CH2CO}-Y[NMeA]DPHQ[Hyp]W[Dab][Trp(1-CH2COOH)][NMeNle][NMeNle]ACG-NH2; thioether N-14) | 1 to 9.9 |
| CCCC[C@H]1C(=O)N(C)[C@@H](CCCC)C(=O)N[C@@H](CCC(=O)O)C(=O)N[C@H](C(=O)NCC(N)=O)CSCC(=O)N[C@@H](Cc2ccc(O)cc2)C(=O)N(C)[C@@H](C)C(=O)N[C@@H](CC(=O)O)C(=O)N2CCCC2C(=O)N[C@@H](CN)C(=O)N[C@@H](CCC(=O)O)C(=O)N2C[C@H](O)C[C@H]2C(=O)N[C@@H](Cc2c[nH]c3ccccc23)C(=O)N[C@@H](CCN)C(=O)N[C@@H](Cc2cn(CC(=O)O)c3ccccc23)C(=O)N1C (stereo partly drawn) [Example 6172] ({CH2CO}-Y[NMeA]D[ξP][Dap]E[Hyp]W[Dab][Trp(1-CH2COOH)][NMeNle][NMeNle]ECG-NH2; thioether N-14) | 1 to 9.9 |
| CCCC[C@H]1C(=O)N(C)[C@@H](CCCC)C(=O)N[C@@H](CC(C)C)C(=O)N[C@H](C(N)=O)CSCC(=O)N[C@@H](Cc2ccc(O)cc2)C(=O)N(C)[C@@H](C)C(=O)N[C@@H](CC(N)=O)C(=O)N2CCC[C@H]2C(=O)N[C@@H](CN)C(=O)N[C@@H](CC(C)C)C(=O)N2C[C@H](O)C[C@H]2C(=O)N[C@@H](Cc2c[nH]c3ccccc23)C(=O)N[C@@H](CO)C(=O)N[C@@H](Cc2cn(CC(=O)O)c3ccccc23)C(=O)N1C [Example 6180] ({CH2CO}-Y[NMeA]NP[Dap]L[Hyp]WS[Trp(1-CH2COOH)][NMeNle][NMeNle]LC-NH2; thioether N-14) | 1 to 9.9 |

The remaining lines, values ahead:

| IC50 [nM] | SMILES |
| --- | --- |
| 10 to 99.9 | CCCC[C@H]1C(=O)N(C)[C@@H](CCCC)C(=O)N[C@@H](CCC(=O)O)C(=O)N[C@H](C(=O)NCC(N)=O)CSCC(=O)N[C@@H](Cc2ccc(O)cc2)C(=O)N(C)[C@@H](C)C(=O)N[C@@H](CC(N)=O)C(=O)N2CCC[C@H]2C(=O)N[C@@H](CN)C(=O)N[C@@H](CC(C)C)C(=O)N2C[C@H](O)C[C@H]2C(=O)N[C@@H](Cc2c[nH]c3ccccc23)C(=O)N[C@@H](CO)C(=O)N[C@@H](Cc2cn(CC(=O)O)c3ccccc23)C(=O)N1C [Example 6137] ({CH2CO}-Y[NMeA]NP[Dap]L[Hyp]WS[Trp(1-CH2COOH)][NMeNle][NMeNle]ECG-NH2; thioether N-14) |
| 1 to 9.9 | CCCC[C@H]1C(=O)N(C)[C@@H](CCCC)C(=O)N[C@@H](CC(C)C)C(=O)N[C@H](C(=O)NCC(N)=O)CSCC(=O)N[C@@H](Cc2ccc(O)cc2)C(=O)N(C)[C@@H](C)C(=O)N[C@@H](CC(N)=O)C(=O)N2CCC[C@H]2C(=O)N[C@@H](CN)C(=O)N[C@@H](CCC(=O)O)C(=O)N2C[C@H](O)C[C@H]2C(=O)N[C@@H](Cc2c[nH]c3ccccc23)C(=O)N[C@@H](CCN)C(=O)N[C@@H](Cc2cn(CC(=O)O)c3ccccc23)C(=O)N1C [Example 6146] ({CH2CO}-Y[NMeA]NP[Dap]E[Hyp]W[Dab][Trp(1-CH2COOH)][NMeNle][NMeNle]LCG-NH2; thioether N-14) |
| 1 to 9.9 | CCCC[C@H]1C(=O)N(C)[C@@H](CCCC)C(=O)N[C@@H](CC(C)C)C(=O)N[C@H](C(=O)NCC(N)=O)CSCC(=O)N[C@@H](Cc2ccc(O)cc2)C(=O)N(C)[C@@H](C)C(=O)N[C@@H](CC(=O)O)C(=O)N2CCC[C@H]2C(=O)N[C@@H](Cc2cnc[nH]2)C(=O)N[C@@H](CCCCN)C(=O)N2C[C@H](O)C[C@H]2C(=O)N[C@@H](Cc2c[nH]c3ccccc23)C(=O)N[C@@H](CCCCN)C(=O)N[C@@H](Cc2cn(CC(=O)O)c3ccccc23)C(=O)N1C [Example 6156] ({CH2CO}-Y[NMeA]DPHK[Hyp]WK[Trp(1-CH2COOH)][NMeNle][NMeNle]LCG-NH2; thioether N-14) |
| 10 to 99.9 | CCCC[C@H]1C(=O)N(C)[C@@H](CCCC)C(=O)N[C@@H](CC(C)C)C(=O)N[C@H](C(=O)NCC(N)=O)CSCC(=O)N[C@@H](Cc2ccc(O)cc2)C(=O)N(C)[C@@H](C)C(=O)N[C@@H](CC(N)=O)C(=O)N2CCCC2C(=O)N[C@@H](Cc2cnc[nH]2)C(=O)N[C@@H](CCC(N)=O)C(=O)N[C@H](C)C(=O)N[C@@H](Cc2c[nH]c3ccccc23)C(=O)N[C@@H](CO)C(=O)N[C@@H](Cc2c[nH]c3ccccc23)C(=O)N1C (stereo partly drawn) [Example 6168] ({CH2CO}-Y[NMeA]N[ξP]HQ[dA]WSW[NMeNle][NMeNle]LCG-NH2; thioether N-14) |
| 1 to 9.9 | CCCC[C@H]1C(=O)N(C)[C@@H](CCCC)C(=O)N[C@@H](CC(C)C)C(=O)N[C@H](C(=O)NCC(N)=O)CSCC(=O)N[C@@H](Cc2ccc(O)cc2)C(=O)N(C)[C@@H](C)C(=O)N[C@@H](CC(N)=O)C(=O)N2CCC[C@H]2C(=O)N[C@@H](CN)C(=O)N[C@@H](CC(C)C)C(=O)N(C)CC(=O)N[C@@H](Cc2c[nH]c3ccccc23)C(=O)N[C@@H](CCN)C(=O)N[C@@H](Cc2cn(CC(=O)O)c3ccccc23)C(=O)N1C [Example 6170] ({CH2CO}-Y[NMeA]NP[Dap]L[Sar]W[Dab][Trp(1-CH2COOH)][NMeNle][NMeNle]LCG-NH2; thioether N-14) |
| 10 to 99.9 | CCCC[C@H]1C(=O)N(C)[C@@H](CCCC)C(=O)N[C@@H](CC(C)C)C(=O)N[C@H](C(=O)NCC(N)=O)CSCC(=O)N[C@@H](Cc2ccc(O)cc2)C(=O)N(C)[C@@H](C)C(=O)N[C@@H](CC(N)=O)C(=O)N2CCC[C@H]2C(=O)N[C@@H](Cc2cnc[nH]2)C(=O)N[C@@H](CCC(N)=O)C(=O)N2C[C@H](O)C[C@H]2C(=O)N[C@@H](Cc2c[nH]c3ccccc23)C(=O)N[C@@H](CO)C(=O)N[C@@H](Cc2cn(CC(=O)O)c3ccccc23)C(=O)N1C [Example 6176] ({CH2CO}-Y[NMeA]NPHQ[Hyp]WS[Trp(1-CH2COOH)][NMeNle][NMeNle]LCG-NH2; thioether N-14) |
| 1 to 9.9 | CCCC[C@H]1C(=O)N(C)[C@@H](CCCC)C(=O)N[C@@H](CCC(=O)O)C(=O)N[C@H](C(=O)NCC(N)=O)CSCC(=O)N[C@@H](Cc2ccc(O)cc2)C(=O)N(C)[C@@H](C)C(=O)N[C@@H](CC(=O)O)C(=O)N2CCC[C@H]2C(=O)N[C@@H](CN)C(=O)N[C@@H](CCC(N)=O)C(=O)N2C[C@H](O)C[C@H]2C(=O)N[C@@H](Cc2c[nH]c3ccccc23)C(=O)N[C@@H](CCN)C(=O)N[C@@H](Cc2cn(CC(=O)O)c3ccccc23)C(=O)N1C [Example 6189] ({CH2CO}-Y[NMeA]DP[Dap]Q[Hyp]W[Dab][Trp(1-CH2COOH)][NMeNle][NMeNle]ECG-NH2; thioether N-14) |
| 10 to 99.9 | CCCC[C@H]1C(=O)N(C)[C@@H](CCCC)C(=O)N[C@@H](CCCNC(=N)N)C(=O)N[C@H](C(=O)NCC(N)=O)CSCC(=O)N[C@@H](Cc2ccc(O)cc2)C(=O)N(C)[C@@H](C)C(=O)N[C@@H](CC(N)=O)C(=O)N2CCC[C@H]2C(=O)N[C@@H](Cc2cnc[nH]2)C(=O)N[C@@H](CO)C(=O)N2C[C@H](O)C[C@H]2C(=O)N[C@@H](Cc2c[nH]c3ccccc23)C(=O)N[C@@H](CO)C(=O)N[C@@H](Cc2cn(CC(=O)O)c3ccccc23)C(=O)N1C [Example 6202] ({CH2CO}-Y[NMeA]NPHS[Hyp]WS[Trp(1-CH2COOH)][NMeNle][NMeNle]RCG-NH2; thioether N-14) |
